The source of these data is patent publication US12473301B2, “Isoquinoline compounds for the treatment of cancer” (Genentech, Inc., priority 2018, dated 2025).

Structures are written as SMILES. pKi: −log10 of the molar value.

Sequence of HPK1 (Q92918 whole entry T165E/S171E): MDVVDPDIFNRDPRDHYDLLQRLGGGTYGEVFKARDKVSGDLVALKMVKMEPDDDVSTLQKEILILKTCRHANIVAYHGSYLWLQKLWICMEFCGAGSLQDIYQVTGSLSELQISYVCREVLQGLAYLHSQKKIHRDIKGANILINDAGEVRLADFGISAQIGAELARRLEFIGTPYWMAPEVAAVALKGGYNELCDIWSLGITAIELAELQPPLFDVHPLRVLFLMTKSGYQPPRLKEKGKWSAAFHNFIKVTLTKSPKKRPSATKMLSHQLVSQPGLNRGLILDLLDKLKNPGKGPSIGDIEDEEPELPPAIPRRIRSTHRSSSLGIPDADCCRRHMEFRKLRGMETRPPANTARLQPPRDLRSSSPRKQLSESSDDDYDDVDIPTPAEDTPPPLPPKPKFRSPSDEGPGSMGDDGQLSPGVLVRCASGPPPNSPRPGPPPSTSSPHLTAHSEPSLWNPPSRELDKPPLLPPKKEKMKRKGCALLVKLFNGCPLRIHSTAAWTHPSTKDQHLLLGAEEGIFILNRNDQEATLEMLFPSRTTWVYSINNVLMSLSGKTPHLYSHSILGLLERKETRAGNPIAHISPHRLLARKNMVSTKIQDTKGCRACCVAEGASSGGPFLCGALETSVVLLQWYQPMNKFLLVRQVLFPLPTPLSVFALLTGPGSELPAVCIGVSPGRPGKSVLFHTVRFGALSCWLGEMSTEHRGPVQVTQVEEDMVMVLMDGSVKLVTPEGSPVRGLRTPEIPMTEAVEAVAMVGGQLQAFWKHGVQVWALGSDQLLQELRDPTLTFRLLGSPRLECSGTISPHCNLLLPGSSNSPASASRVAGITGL

The first experiment has as its target HPK1 (Homo sapiens (Human), UniProt Q92918, S171E/T165E). In words: HPK1-FL HTRF Enzymatic Assay ("HTRF"). It is filed as biochemical. The settings on record: HPK full length, ATP 1 mM. As to the method: HPK1-FL HTRF Enzymatic Assay (“HTRF”)
HPK-FL enzyme phosphorylates Biotin-SLP-76 substrate in the presence of ATP at 1 mM and varying concentrations of test compound. Product is detected by FRET using Eu-anti-pSLP76 Ab and SA-XL665. Also see www.cisbio.com/HTRF for additional HTRF technology information.
Instrumentation: Echo555 compound dispenser; Agilent Bravo; Perkin Elmer Envision.
To a 384 well Proxiplate with 80 nL compound or DMSO spotted on was added 4 μl/well kinase mix. The mixture was preincubated for 30 minutes and then 4 μl/well substrate mix was added. The solution was incubated for 60 min and then 4 μl/well detection mix was added. The solution was incubated for another 60 min. The plates were then loaded onto a
Perkin Elmer Envision and the TR-FRET signal was measured at […] and 665 nm. A ratio of 665/620 was used to calculate the % activity at each concentration of compound.
Turning to `CC[C@@H]1[C@H](C(=O)Nc2cc3cc(-c4cnc5c(c4C)NCCO5)c(F)cc3cn2)[C@H]1c1cnn(C)c1` (single isomer, unassigned) [Compound 301c], the pKi was 10.22. Still for that read-out and setting: the figure for `Cc1c(-c2cc3cc(NC(=O)OC[C@H]4CCCN4)ncc3cc2F)cnc2c1NCCO2` [Compound 109a, (R)-Pyrrolidin-2-ylmethyl (7-fluoro-6-(8-methyl-2,3-dihydro-1H-pyrido[2,3-b][1,4]oxazin-7-yl)isoquinolin-3-yl)carbamate] is 7.60; for `Cc1c(-c2cc3cc(NC(=O)OCC4(F)CCNCC4)ncc3cc2F)cnc2c1NCCO2` [Compound 111, (4-Fluoropiperidin-4-yl)methyl (7-fluoro-6-(8-methyl-2,3-dihydro-1H-pyrido[2,3-b][1,4]oxazin-7-yl)isoquinolin-3-yl)carbamate] it is 8.40. As for `Cc1c(-c2cc3cc(NC(=O)OCCN)ncc3cc2F)cnc2c1NCCO2` [Compound 112, 2-Aminoethyl (7-fluoro-6-(8-methyl-2,3-dihydro-1H-pyrido[2,3-b][1,4]oxazin-7-yl)isoquinolin-3-yl)carbamate], the pKi was 7.49. Same read-out and setting: the figure for `Cc1c(-c2cc3cc(NC(=O)OC4CC5(CCNCC5)C4)ncc3cc2F)cnc2c1NCCO2` [Compound 113, 7-Azaspiro[3.5]nonan-2-yl (7-fluoro-6-(8-methyl-2,3-dihydro-1H-pyrido[2,3-b][1,4]oxazin-7-yl)isoquinolin-3-yl)carbamate] is 9.57. The same measure, in the same setting: the figure for `Cc1c(-c2cc3cc(NC(=O)OCCS(C)(=O)=O)ncc3cc2F)cnc2c1NCCO2` [Compound 117, 2-(Methylsulfonyl)ethyl (7-fluoro-6-(8-methyl-2,3-dihydro-1H-pyrido[2,3-b][1,4]oxazin-7-yl)isoquinolin-3-yl)carbamate] is 8.21; for `Cc1c(-c2cc3cc(NC(=O)OCC(F)(F)F)ncc3cc2F)cnc2c1NCCO2` [Compound 118, 2,2,2-Trifluoroethyl (7-fluoro-6-(8-methyl-2,3-dihydro-1H-pyrido[2,3-b][1,4]oxazin-7-yl)isoquinolin-3-yl)carbamate] it is 6.69; for `Cc1c(-c2cc3cc(NC(=O)OCCc4ccccn4)ncc3cc2F)cnc2c1NCCO2` [Compound 119, 2-(Pyridin-2-yl)ethyl (7-fluoro-6-(8-methyl-2,3-dihydro-1H-pyrido[2,3-b][1,4]oxazin-7-yl)isoquinolin-3-yl)carbamate] it is 8.02. On the same count and under the same terms, the figure for `Cc1c(-c2cc3cc(NC(=O)OCC(C)(C)C)ncc3cc2F)cnc2c1NCCO2` [Compound 120, Neopentyl (7-fluoro-6-(8-methyl-2,3-dihydro-1H-pyrido[2,3-b][1,4]oxazin-7-yl)isoquinolin-3-yl)carbamate] is 8.37. In the case of `Cc1c(-c2cc3cc(NC(=O)OC4CC5CC4CN5)ncc3cc2F)cnc2c1NCCO2` (centres unmarked) [Compound 121, 2-Azabicyclo[2.2.1]heptan-5-yl (7-fluoro-6-(8-methyl-2,3-dihydro-1H-pyrido[2,3-b][1,4]oxazin-7-yl)isoquinolin-3-yl)carbamate], the pKi was 8.06. On the same count and under the same terms, the figure for `Cc1c(-c2cc3cc(NC(=O)OCCC4C5CNCC45)ncc3cc2F)cnc2c1NCCO2` (centres unmarked) [Compound 124, 2-(3-Azabicyclo[3.1.0]hexan-6-yl)ethyl (7-fluoro-6-(8-methyl-2,3-dihydro-1H-pyrido[2,3-b][1,4]oxazin-7-yl)isoquinolin-3-yl)carbamate] is 9.36. Same read-out and setting: the figure for `Cc1c(-c2cc3cc(NC(=O)OC4CC5(CNC5)C4)ncc3cc2F)cnc2c1NCCO2` [Compound 125, 2-Azaspiro[3.3]heptan-6-yl (7-fluoro-6-(8-methyl-2,3-dihydro-1H-pyrido[2,3-b][1,4]oxazin-7-yl)isoquinolin-3-yl)carbamate] is 9.47. On the same count and under the same terms, the figure for `Cc1c(-c2cc3cc(NC(=O)O[C@H]4[C@@H]5CNC[C@@H]54)ncc3cc2F)cnc2c1NCCO2` [Compound 129a, (1R,5S,6s)-3-Azabicyclo[3.1.0]hexan-6-yl (7-fluoro-6-(8-methyl-2,3-dihydro-1H-pyrido[2,3-b][1,4]oxazin-7-yl)isoquinolin-3-yl)carbamate] is 9.24; for `Cc1c(-c2cc3cc(NC(=O)OC4CS(=O)(=O)C4)ncc3cc2F)cnc2c1NCCO2` [Compound 130, 1,1-Dioxidothientan-3-yl (7-fluoro-6-(8-methyl-2,3-dihydro-1H-pyrido[2,3-b][1,4]oxazin-7-yl)isoquinolin-3-yl)carbamate] it is 8.39.

Turning to `Cc1c(-c2cc3cc(NC(=O)OC4CC5(C4)CN(C)C5)ncc3cc2F)cnc2c1NCCC2` [Compound 132, 2-Methyl-2-azaspiro[3.3]heptan-6-yl (7-fluoro-6-(4-methyl-5,6,7,8-tetrahydro-1,5-naphthyridin-3-yl)isoquinolin-3-yl)carbamate], the pKi was 8.94.

For `Cc1c(-c2cc3cc(NC(=O)OC4CC5(CCN(C)CC5)C4)ncc3cc2F)cnc2c1NCCC2` [Compound 133, 7-Methyl-7-azaspiro[3.5]nonan-2-yl (7-fluoro-6-(4-methyl-5,6,7,8-tetrahydro-1,5-naphthyridin-3-yl)isoquinolin-3-yl)carbamate], the pKi was 8.97. Still for that read-out and setting: the figure for `Cc1c(-c2cc3cc(NC(=O)OC4CC5(CCNC5)C4)ncc3cc2F)cnc2c1NCCO2` (centres unmarked) [Compound 134, 6-Azaspiro[3.4]octan-2-yl (7-fluoro-6-(8-methyl-2,3-dihydro-1H-pyrido[2,3-b][1,4]oxazin-7-yl)isoquinolin-3-yl)carbamate] is 9.33; for `Cc1c(-c2cc3cc(NC(=O)NCC4CC4)ncc3cc2F)cnc2c1NCCO2` [Compound 202, 1-(Cyclopropylmethyl)-3-(7-fluoro-6-(8-methyl-2,3-dihydro-1H-pyrido[2,3-b][1,4]oxazin-7-yl)isoquinolin-3-yl)urea] it is 9.30; for `Cc1c(-c2cc3cc(NC(=O)NC4CCOCC4)ncc3cc2F)cnc2c1NCCO2` [Compound 204, 1-(7-Fluoro-6-(8-methyl-2,3-dihydro-1H-pyrido[2,3-b][1,4]oxazin-7-yl)isoquinolin-3-yl)-3-(tetrahydro-2H-pyran-4-yl)urea] it is 9.08. `Cc1c(-c2cc3cc(NC(=O)NC4CNC4)ncc3cc2F)cnc2c1NCCO2` [Compound 205, 1-(Azetidin-3-yl)-3-(7-fluoro-6-(8-methyl-2,3-dihydro-1H-pyrido[2,3-b][1,4]oxazin-7-yl)isoquinolin-3-yl)urea]: the pKi is 9.12. Still for that read-out and setting: the figure for `Cc1c(-c2cc3cc(NC(=O)NC4CC4)ncc3cc2F)cnc2c1NCCO2` [Compound 207, 1-Cyclopropyl-3-(7-fluoro-6-(8-methyl-2,3-dihydro-1H-pyrido[2,3-b][1,4]oxazin-7-yl)isoquinolin-3-yl)urea] is 9.70; for `CC[C@@H]1[C@H](C(=O)Nc2cc3cc(-c4c[n+]([O-])ccc4C)c(F)cc3cn2)[C@H]1c1cnn(C)c1` [Compound 302a, 3-(3-((1S,2S,3S)-2-Ethyl-3-(1-methyl-1H-pyrazol-4-yl)cyclopropane-1-carboxamido)-7-fluoroisoquinolin-6-yl)-4-methylpyridine 1-oxide] it is 5.89; for `CC[C@H]1[C@H](C(=O)Nc2cc3cc(-c4c[n+]([O-])ccc4C)c(F)cc3cn2)[C@H]1c1cnn(C)c1` [Compound 302b, 3-(3-((1S,2R,3S)-2-Ethyl-3-(1-methyl-1H-pyrazol-4-yl)cyclopropane-1-carboxamido)-7-fluoroisoquinolin-6-yl)-4-methylpyridine 1-oxide] it is 5.70.

The test system of a further experiment is primary human pan T cells. In words: Human T-Cell IL2 Induction Assay. Conditions: assayed concentration 0.926 μM; anti-CD3/anti-CD28 stimulation. It is filed as cell-based. As for the experimental part: Assay Principle: Anti-CD3 and anti-CD28 activates TCR signaling in primary human pan T cells leading to IL-2 promoter induction. Secreted IL-2 in cell culture supernatant is detected by electrochemiluminescence using a capture antibody against IL-2 and an anti-IL-2 antibody labeled with SULFO-tag. Also see www.mesoscale.com for additional electrochemiluminescence technology information.
Assay Procedure: Incubate primary human pan T cells with varying concentrations of test compounds for 30 minutes in a humidified incubator at 37° C. and 5% CO2. Transfer cells to a plate pre-coated with a fixed concentration of anti-human CD3 (determined separately for each donor lot) and add soluble anti-human CD28 (final concentration=1 μg/ml). Stimulate cells in a humidified incubator at 37° C. and 5% CO2 for 4 hours. Transfer 25 μl of supernatant to a MSD single spot plate pre-coated with an anti-human IL-2 antibody. Incubate MSD plate overnight at 4° C. with gentle shaking. Wash MSD plate 4× with wash buffer. Add SULFO-tagged detection antibody at a 1:50 dilution and incubate at room temperature shaking for 2 hours. Wash MSD plate 4× with wash buffer and add 150 μl 2×MSD read buffer. Read on an MSD instrument. Normalize data to stimulated/untreated controls to calculate % activity at each concentration of compound.
• Frozen Primary Human Pan-T Cells (StemCell Technologies #70024) • anti-human CD3 (OKT3 clone) (eBioscience #16-0037-81) • anti-human CD28 (CD28.2 clone) (BD #555725) • 96-well Human IL-2 tissue culture kit (MSD #K151AHB-4) Instrumentation: • Biomek FX for liquid handling (Beckman Coulter) • MSD SECTOR S 600 (Meso Scale Discovery)
Exemplary compounds of Formula (I) were tested in the human T-cell IL-2 induction assays. The % increase measured for IL-2 in cells treated by the test compounds relative to untreated cells are provided in Table B2 for certain compounds.
Turning to `CC[C@@H]1[C@H](C(=O)Nc2cc3cc(-c4cnc5c(c4C)NCCO5)c(F)cc3cn2)[C@H]1c1cnn(C)c1` (single isomer, unassigned) [Compound 301c], the “% IL-2 increase relative to untreated cells” value stood at 232%.

The experiment is the same for the next values; noted with them: assayed concentration 2.778 μM; anti-CD3/anti-CD28 stimulation.
In the case of `Cc1c(-c2cc3cc(NC(=O)OC4CC5(CCNCC5)C4)ncc3cc2F)cnc2c1NCCO2` [Compound 113, 7-Azaspiro[3.5]nonan-2-yl (7-fluoro-6-(8-methyl-2,3-dihydro-1H-pyrido[2,3-b][1,4]oxazin-7-yl)isoquinolin-3-yl)carbamate], the “% IL-2 increase relative to untreated cells” value is on record as 702%. Still for that read-out and setting: the figure for `Cc1c(-c2cc3cc(NC(=O)N[C@H](C)c4cnn(C)c4)ncc3cc2F)cnc2c1NCCO2` [Compound 201a, (R)-1-(7-Fluoro-6-(8-methyl-2,3-dihydro-1H-pyrido[2,3-b][1,4]oxazin-7-yl)isoquinolin-3-yl)-3-(1-(1-methyl-1H-pyrazol-4-yl)ethyl)urea] is 145%.
